Article PMC8760323, “Single-chain tandem macrocyclic peptides as a scaffold for growth factor and cytokine mimetics” (Communications Biology, 2022)

Assays:
HEL cells [1] = assay: Phosphokinase array (TPO signal cascade); type: cell-based, human; details: 5.4 nM rhTPO or 1:1000 diluted TMP-PA8 supernatant, 20 min
Protocol: The TPO signal cascade was analyzed using the Proteome Profiler Human Phosphokinase Array Kit (R&D Systems). Briefly, 1 × 10^6 HEL cells in a 6-well cell culture dish were starved in RPMI 1640 medium for 24 h. The starved cells were stimulated by 5.4 nM rhTPO or 1:1000 diluted TMP-PA8 containing a C. glutamicum supernatant for 20 min, rinsed once with PBS, and lysed with 200 μL of lysis buffer 17 supplemented with a protease inhibitor cocktail. Lysates were analyzed using the Proteome Profiler Human Phosphokinase Array Kit (R&D Systems) according to the manufacturer’s instructions. Chemiluminescence was detected using Amersham Imager 600 (Cytiva).

HEL cells [2] = assay: Phospho-CREB ELISA; type: cell-based, human
Protocol: Here, 100,000 HEL cells were seeded on a 96-well cell culture plate in RPMI 1640 medium and incubated overnight for starvation. The starved cells were stimulated by rhTPO or TMP-PA8 for 20 min, rinsed once with PBS, and lysed with lysis buffer 17 supplemented with a protease inhibitor cocktail. The phosphorylation level of CREB was assessed using phospho-CREB (Ser133) and the Total CREB ELISA kit (RayBio) according to the manufacturer’s instructions. The amounts of phospho-CREB and total CREB were quantified by measuring absorbance at 450 nm, and the phospho-CREB level was calculated as (absorbance of pCREB)/(absorbance of total CREB).

## rhTPO: recombinant human TPO (Peprotech)
HEL cells [1]
  phosphorylation of STAT3, STAT5, Erk1/2 and CREB compared with unstimulated cells: enhanced
HEL cells [2]; 7.375 pM, replicate 1
  Normazlied pCREB/CREB: 1.252
HEL cells [2]; 7.375 pM, replicate 2
  Normazlied pCREB/CREB: 0.9311
HEL cells [2]; 7.375 pM, replicate 3
  Normazlied pCREB/CREB: 0.9649
HEL cells [2]; 22.12 pM, replicate 1
  Normazlied pCREB/CREB: 1.113
HEL cells [2]; 22.12 pM, replicate 2
  Normazlied pCREB/CREB: 1.1408
HEL cells [2]; 22.12 pM, replicate 3
  Normazlied pCREB/CREB: 1.274
HEL cells [2]; 66.37 pM, replicate 1
  Normazlied pCREB/CREB: 1.03
HEL cells [2]; 66.37 pM, replicate 2
  Normazlied pCREB/CREB: 1.312
HEL cells [2]; 66.37 pM, replicate 3
  Normazlied pCREB/CREB: 1.353
HEL cells [2]; 199.1 pM, replicate 1
  Normazlied pCREB/CREB: 1.208
HEL cells [2]; 199.1 pM, replicate 2
  Normazlied pCREB/CREB: 1.421
HEL cells [2]; 199.1 pM, replicate 3
  Normazlied pCREB/CREB: 1.637
HEL cells [2]; 597.4 pM, replicate 1
  Normazlied pCREB/CREB: 1.281
HEL cells [2]; 597.4 pM, replicate 2
  Normazlied pCREB/CREB: 1.5026
HEL cells [2]; 597.4 pM, replicate 3
  Normazlied pCREB/CREB: 1.479
HEL cells [2]; 1.79211e-9 M, replicate 1
  Normazlied pCREB/CREB: 1.452
HEL cells [2]; 1.79211e-9 M, replicate 2
  Normazlied pCREB/CREB: 1.237
HEL cells [2]; 1.79211e-9 M, replicate 3
  Normazlied pCREB/CREB: 1.5195
HEL cells [2]; 5.37634e-9 M, replicate 1
  Normazlied pCREB/CREB: 1.523
HEL cells [2]; 5.37634e-9 M, replicate 2
  Normazlied pCREB/CREB: 0.9969
HEL cells [2]; 5.37634e-9 M, replicate 3
  Normazlied pCREB/CREB: 1.102
HEL cells [2]; at concentrations of 0.1-1 nM
  promotion of CREB phosphorylation: 1.5 fold
